For 21 compounds, IC50 results are on record in patent US20260274833A1 (NiKang Therapeutics, Inc., priority 2022, published 2026).

The test deals with T1, CDK2 (Homo sapiens, UniProt P24941).
T1 construct: endogenous in cells; host or cells: OVCAR3 cells
Nature of the test: Phospho-RB measurement in OVCAR3 cells (HTRF phospho-RB cellular kit). The class given is cell-based. To be noted: inhibition of RB phosphorylation at S807/811 (HTRF, TR-FRET ratio 665/620), 24 h compound treatment, 0.3 to 10,000 nM. In a few lines: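 IC50 came from a four-parameter logistic fit of the DMSO-normalized TR-FRET ratio (665/620 nm). That ratio reflects RB phosphorylation at S807/811, read with an HTRF antibody pair 4 h after adding lysate at room temperature.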
A general note: TR-FRET usually uses a lanthanide donor and a delayed reading to cut background.

By IC50 is commonly meant the concentration at which inhibition is half-maximal. On to `CNCc1cccc2c1CCN2S(=O)(=O)Nc1cccc(-c2nc(C(C)(C)C)sc2-c2ccnc(NC3CCN(S(C)(=O)=O)CC3)n2)c1F` [Example 134, N-(3-(2-(tert-butyl)-5-(2-((1-(methylsulfonyl)-piperidin-4-yl)amino)-pyriidin-4-yl)thiazol-4-yl)-2-fluoro-phenyl)-4-((methylamino)methyl)-indoline-1-sulfonamide], for which the IC50 was 589 nM.
Then `CNCc1ccc2c(c1)N(S(=O)(=O)Nc1cccc(-c3nc(C(C)(C)C)sc3-c3ccnc(NC4CCN(S(C)(=O)=O)CC4)n3)c1F)CC2` [Example 160, N-(3-(2-(tert-butyl)-5-(2-((1-(methylsulfonyl)-piperidin-4-yl)amino)-pyrimidin-4-yl)thiazol-4-yl)-2-fluoro-phenyl)-6-((methylamino)methyl)-indoline-1-sulfonamide], with 4040 nM; and `COc1ccc2c(c1)CN(S(=O)(=O)Nc1cccc(-c3nc(C(C)(C)C)sc3-c3ccnc(NC4CCN(S(=O)(=O)N5CCNCC5)CC4)n3)c1F)C2` [Example 119, N-(3-(2-(tert-butyl)-5-(2-((1-(piperazin-1-ylsulfonyl)piperidin-4-yl)amino)-pyrimidin-4-yl)thiazol-4-yl)-2-fluoro-phenyl)-5-methoxy-isoindoline-2-sulfonamide], with 397 nM; and `CC(C)(C)c1nc(-c2cccc(NS(=O)(=O)N3CCOc4ncccc4C3)c2F)c(-c2ccnc(NC3CCN(S(C)(=O)=O)CC3)n2)s1` [Example 110, N-(3-(2-(tert-butyl)-5-(2-((1-(methylsulfonyl)-piperidin-4-yl)amino)-pyrimidin-4-yl)thiazol-4-yl)-2-fluoro-phenyl)-2,3-dihydropyrido [3,2-f][1,4]-oxazepine-4 (5H)-sulfonamide], with 1030 nM.
Then `CC(C)(C)c1nc(-c2cccc(NS(=O)(=O)N3Cc4ccnc(O)c4C3)c2F)c(-c2ccnc(NC3CCN(S(C)(=O)=O)CC3)n2)s1` [Example 239, N-(3-(2-(tert-butyl)-5-(2-((1-(methylsulfonyl)-piperidin-4-yl)amino)-pyrimidin-4-yl)thiazol-4-yl)-2-fluoro-phenyl)-4-hydroxy-1,3-dihydro-2H-pyrrolo[3,4-c] pyridine-2-sulfonamide], with 4690 nM; and `CN1CCN(S(=O)(=O)N2CCC(Nc3nccc(-c4sc(C(C)(C)C)nc4-c4cccc(NS(=O)(=O)N5Cc6cccnc6C5)c4F)n3)CC2)CC1` [Example 127, N-(3-(2-(tert-butyl)-5-(2-((1-((4-methyl-piperazin-1-yl)sulfonyl)piperidin-4-yl)amino)-pyrimidin-4-yl)thiazol-4-yl)-2-fluorophenyl)-5,7-dihydro-6H-pyrrolo[3,4-b] pyridine-6-sulfonamide], with 208 nM.
As to `CC(C)(C)c1nc(-c2cccc(NS(=O)(=O)N3CCc4ccc(C(N)=O)cc43)c2F)c(-c2ccnc(NC3CCN(S(C)(=O)=O)CC3)n2)s1` [Example 168, 1-(N-(3-(2-(tert-butyl)-5-(2-((1-(methyl-sulfonyl)piperidin-4-yl)amino)pyrimidin-4-yl)thiazol-4-yl)-2-fluorophenyl)-sulfamoyl)-indoline-6-carboxamide], the IC50 amounted to 1590 nM.
Then `CN1CCN(S(=O)(=O)N2CCC(Nc3nccc(-c4sc(C(C)(C)C)nc4-c4cccc(NS(=O)(=O)N(C)C5CCC5)c4F)n3)CC2)CC1` [Example 111, N-(3-(2-(tert-butyl)-5-(2-((1-((4-methylpiperazin-1-yl)sulfonyl)piperidin-4-yl)amino)pyrimidin-4-yl)thiazol-4-yl)-2-fluorophenyl)-(N-methyl-N-cyclobutylamine)-sulfonamide], with 908 nM; and `CN(C)Cc1ccc(Nc2nccc(-c3sc(C(C)(C)C)nc3-c3cccc(NS(=O)(=O)N4CCc5ccc(C#N)cc54)c3F)n2)cc1` [Example 248, N-(3-(2-(tert-butyl)~5-(2-((4-((dimethylamino)-methyl)phenyl)-amino)pyrimidin-4-yl)thiazol-4-yl)-2-fluorophenyl)-6-cyanoindoline-1-sulfonamide], with 405 nM; and `COc1cccc2c1CN(S(=O)(=O)Nc1cccc(-c3nc(C45CC(C4)C5)sc3-c3ccnc(NC4CC5(C4)CS(=O)(=O)C5)n3)c1F)C2` [Example 23, N-(3-(2-(bicyclo [1.1.1]pentan-1-yl)-5-(2-((2,2-dioxido-2-thiaspiro[3.3]heptan-6-yl)amino)-pyrimidin-4-yl)thiazol-4-yl)-2-fluorophenyl)-4-methoxyisoindoline-2-sulfonamide], with 136 nM.
Then `CC(C)(C)c1nc(-c2cccc(NS(=O)(=O)N3CCc4cnccc43)c2F)c(-c2ccnc(NC3CCN(S(C)(=O)=O)CC3)n2)s1` [Example 162, N-(3-(2-(tert-butyl)-5-(2-((1-(methylsulfonyl)piperidin-4-yl)amino)-pyrimidin-4-yl)thiazol-4-yl)-2-fluoro-phenyl)-2,3-dihydro-1H-pyrrolo [3,2-c]-pyridine-1-sulfonamide], with 2120 nM.
Then `COc1cc2c(cc1OC)CN(S(=O)(=O)Nc1cccc(-c3nc(C(C)(C)C)sc3-c3ccnc(NC4CCN(S(C)(=O)=O)CC4)n3)c1F)C2` [Example 87, N-(3-(2-(tert-butyl)-5-(2-((1-(methylsulfonyl)-piperidin-4-yl)amino)-pyrimidin-4-yl)thiazol-4-yl)-2-fluorophenyl)-5,6-dimethoxy-isoindoline-2-sulfonamide], with 325 nM; and `CN1CC2CCC(C1)N2c1nc(-c2cccc(NS(=O)(=O)N3CCc4ccccc43)c2F)c(-c2ccnc(NC3CC4(C3)CS(=O)(=O)C4)n2)s1` [Example 17, N-(3-(5-(2-((2,2-dioxido-2-thiaspiro-[3.3]-heptan-6-yl)amino)pyrimidin-4-yl)-2-(3-methyl-3,8-diazabicyclo[3.2.1]-octan-8-yl)thiazol-4-yl)-2-fluorophenyl)-indoline-1-sulfonamide], with 15 nM.
`CC(C)(C)c1nc(-c2cccc(NS(=O)(=O)N3Cc4ccccc4C3Cc3ccccc3)c2F)c(-c2ccnc(NC3CCN(S(C)(=O)=O)CC3)n2)s1` (stereo not drawn) [Example 213, 1-benzyl-N-(3-(2-(tert-butyl)-5-(2-((1-(methylsulfonyl)piperidin-4-yl)amino)-pyrimidin-4-yl)thiazol-4-yl)-2-fluoro-phenyl)-isoindoline-2-sulfonamide]: the IC50 came to 3300 nM.
Then `CC(C)(C)c1nc(-c2cccc(NS(=O)(=O)N3Cc4cccc(Oc5ccc(F)cc5)c4C3)c2F)c(-c2ccnc(NC3CC4(C3)CS(=O)(=O)C4)n2)s1` [Example 215, N-(3-(2-(tert-butyl)-5-(2-((2,2-dioxido-2-thiaspiro[3.3]heptan-6-yl)amino)-pyrimidin-4-yl)thiazol-4-yl)-2-fluoro-phenyl)-4-(4-fluoro-phenoxy)-isoindoline-2-sulfonamide], with 601 nM; and `CC(C)(C)c1nc(-c2cccc(NS(=O)(=O)N3CCC4(CCC4)C3)c2F)c(-c2ccnc(NC3CCN(S(=O)(=O)N4CCNCC4)CC3)n2)s1` [Example 177, N-(3-(2-(tert-butyl)-S-(2-((1-(piperazin-1-ylsulfonyl)piperidin-4-yl)amino)-pyrimidin-4-yl)thiazol-4-yl)-2-fluoro-phenyl)-6-azaspiro[3.4] octane-6-sulfonamide], with 1020 nM; and `CC(C)(C)c1nc(-c2cccc(NS(=O)(=O)N3CCc4ccc(C#N)cc43)c2F)c(-c2ccnc(N[C@H]3[C@@H]4CS(=O)(=O)C[C@@H]43)n2)s1` [Example 223, N-(3-(2-(tert-butyl)-5-(2-(((1R,5S,6r)-3,3-dioxido-3-thiabicyclo [3.1.0]hexan-6-yl)amino)pyrimidin-4-yl)thiazol-4-yl)-2-fluorophenyl)-6-cyanoindoline-1-sulfonamide], with 89 nM.
In the case of `O=S1(=O)CC2(CC(Nc3nccc(-c4sc(N5C6CCC5CN(C5CC(F)(F)C5)C6)nc4-c4cccc(NS(=O)(=O)N5CCc6ccc(C(F)(F)F)cc65)c4F)n3)C2)C1` [Example 293, N-(3-(2-(3-(3,3-difluorocyclobutyl)-3,8-diazabicyclo[3.2.1]octan-8-yl)-5-(2-((2,2-dioxido-2-thiaspiro[3.3]heptan-6-yl)amino)pyrimidin-4-yl)thiazol-4-yl)-2-fluorophenyl)-6-(trifluoromethyl)-indoline-1-sulfonamide], the 50% inhibitory concentration (IC50) worked out at 372 nM.
As to `CC(C)(c1nc(-c2cccc(NS(=O)(=O)N3CCc4ccc(C(F)(F)F)cc43)c2F)c(-c2ccnc(N[C@H]3CC[C@H](S(C)(=O)=O)CC3)n2)s1)C(F)(F)F` [Example 290, N-(2-fluoro-3-(5-(2-(((1r,4r)-4-(methylsulfonyl)cyclohexyl)amino)-pyrimidin-4-yl)-2-(1,1,1-trifluoro-2-methylpropan-2-yl)thiazol-4-yl)phenyl)-6-(trifluoromethyl) indoline-1-sulfonamide], the IC50 worked out at 298 nM.
As to `O=S1(=O)CC2(CC(Nc3nccc(-c4sc(C56CC(C5)C6)nc4-c4cccc(NS(=O)(=O)N5C6CCC5CC(F)(F)C6)c4F)n3)C2)C1` [Example 266, N-(3-(2-(bicyclo [1.1.1]pentan-1-yl)-5-(2-((2,2-dioxido-2-thiaspiro[3.3]heptan-6-yl)amino)-pyrimidin-4-yl)thiazol-4-yl)-2-fluorophenyl)-3,3-difluoro-8-azabicyclo-[3.2.1]octane-8-sulfonamide], the IC50 was determined as 8470 nM.
Then `CNCc1cccc2c1CN(S(=O)(=O)Nc1cccc(-c3nc(C(C)(C)C)sc3-c3ccnc(NC4CCN(S(C)(=O)=O)CC4)n3)c1F)C2` [Example 172, N-(3-(2-(tert-butyl)-5-(2-((1-(methylsulfonyl)-piperidin-4-yl)amino)-pyrimidin-4-yl)thiazol-4-yl)-2-fluoro-phenyl)-4-((methylamino)methyl)-isoindoline-2-sulfonamide], with 3170 nM.
